T1: human ALK5 (ALK5 T204D kinase domain) (Homo sapiens, UniProt P36897, T204D)
T1 construct: The kinase domain of human ALK5 (amino acids 200-503); made in house; host or cells: insect cells (baculovirus)
T1 sequence (P36897 200-503 T204D): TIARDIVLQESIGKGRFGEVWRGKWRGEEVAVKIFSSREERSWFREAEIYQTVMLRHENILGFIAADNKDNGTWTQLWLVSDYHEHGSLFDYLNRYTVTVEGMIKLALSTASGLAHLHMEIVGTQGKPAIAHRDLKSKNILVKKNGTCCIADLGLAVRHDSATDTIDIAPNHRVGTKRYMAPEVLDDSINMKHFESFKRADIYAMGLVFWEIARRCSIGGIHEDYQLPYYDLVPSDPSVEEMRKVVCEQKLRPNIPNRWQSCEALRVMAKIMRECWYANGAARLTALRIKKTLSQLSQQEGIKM

B1: Follistatin: an antagonist of activin signalling (protein, UniProt P19883 30-344, looked up)
Follistatin: GNCWLRQAKNGRCQVLYKTELSKEECCSTGRLSTSWTEEDVNDNTLFKWMIFNGGAPNCIPCKETCENVDCGPGKKCRMNKKNKPRCVCAPDCSNITWKGPVCGLDGKTYRNECALLKARCKEQPELEVQYQGRCKKTCRDVFCPGSSTCVVDQTNNAYCVTCNRICPEPASSEQYLCGNDGVTYSSACHLRKATCLLGRSIGLAYEGKCIKAKSCEDIQCTGGKKCLWDFKVGRGRCSLCDELCPDSKSDEPVCASDNATYASECAMKEAACSSGVLLEVKHSGSCNSISEDTEEEEEDEDQDYSFPISSILEW

Results on 20 molecules are retold here after patent US7989458B2, “Pyrimidine derivatives as alk-5 inhibitors” (Novartis AG, priority 2006, dated 2011).

One data set relates to dimethylnitrosamine induced liver fibrosis.
Assay: not given
The note with it: rat, during the 3 weeks treatment; cited from earlier work.
Turning to `c1ccc(-c2cc(-c3cn[nH]c3-c3ccccn3)ccn2)cc1` [GW6604], the side effects entry is on record as “no obvious side effects”.

Still in this data set, the particulars now being: rat, given therapeutically, 3 weeks treatment; cited from earlier work.
On to `c1ccc(-c2cc(-c3cn[nH]c3-c3ccccn3)ccn2)cc1` [GW6604], for which the “inhibition of extracellular matrix deposition” value is given as 60% and the “prevention of death rate” value is listed as 40%.

Another data set deals with bleomycin-treated rats.
Assay: not given
The note with it: cited from earlier work.
In the case of B1, the lung fibrosis result is reported as “attenuated lung fibrosis”; the “number of macrophages and neutrophils in bronchoalveolar lavage” value is recorded as “significantly reduced”.

The target in the next data set is T1, human ALK5 (ALK5 T204D kinase domain). As to the kind of experiment: ALK5 kinase activity, [33P] phosphate incorporation into casein. The class given is biochemical. The note with it: casein substrate, 1 μM unlabelled ATP. The procedure: The kinase activity of ALK5 is assessed by measuring radiolabelled phosphate [33P] incorporation in to the generic substrate, casein. The kinase domain of human ALK5 (amino acids 200-503) is fused to an N-terminal histidine tag. The kinase activity of ALK5 is rendered constitutive via point mutation at amino acid 204 (threonine to aspartate modification, ALK5 T204D) and the kinase construct is engineered to be expressed from a baculovirus expression construct in insect cells. The purified, recombinantly-expressed histidine-tagged ALK5 T204D protein is dissolved at 5.4 mg/ml in 50 mM Tris-HCl pH 8.0, 150 mM NaCl, 5 mM DTT. ALK5 T204D is dissolved to 2.5 μg/ml in assay buffer (Assay buffer: 20 mM Tris-HCl pH 7.4, 10 mM MgCl2, 2 mM MnCl2) on the day of use.
Test compounds and reference compounds are dissolved in assay buffer without DTT containing 5% (v/v) DMSO. Stock solutions of test and reference compounds are diluted in assay buffer with DTT (1.25 mM) containing 4.5% (v/v) DMSO. 10 μl of test or reference compound are added to the appropriate wells of 96 well U-bottomed plate. Total enzyme activity is determined by measuring ALK5 T204D activity in the absence of ALK5 kinase inhibitor reference compounds. Non-specific binding (NSB) is determined by measuring the activity of ALK5 T204D in the presence of ALK5 kinase inhibitor reference compounds. 10 μl of dephosphorylated casein stock solution (dephosphorylated casein is dissolved in ddH2O at 20 mg/ml) is added per well (200 μg/well final assay concentration). 20 μl of ALK5 T204D (2.5 μg/ml solution) is added per well (50 ng/well final assay concentration). The plates are left to incubate at room temperature for 10 minutes.
10 μl of ATP mix is added to the well to initiate the reaction (0.66 nM [^33P]ATP/1 μM unlabelled ATP/well final assay concentration). The ATP mix is prepared as follows, unlabelled ATP (3 mM) is dissolved in ddH2O and pH adjusted to 7.4. The stock concentration of [^33P]ATP is 10 μCi/μl. The appropriate volume of [^33P]ATP is added to unlabelled ATP solution such that the final assay concentration per well is 0.1 μCi. Following addition of the ATP mix, the plates are incubated at room temperature for 50 minutes. The kinase reaction is terminated by the addition of 50 μL Stop Buffer (20 mM Tris-HCl pH 7.4, 10 mM EDTA).
75 μl/well from the reaction plate is transferred to a Multiscreen-IP plate (MultiScreen-IP plates are prepared by added 50 μL of 70% (v/v) ethanol per well and incubated for 5 minutes at room temperature. The ethanol is removed by aspiration via a MultiScreen HTS Vacuum Manifold unit (Millipore, Cat no: MSVMHT500). The plates are washed twice by adding 200 μl/well ddH2O). The MultiScreen-IP plate is incubated at room temperature for 30 minutes to allowing binding of casein to the plate. The MultiScreen-IP plates are washed three times by adding 200 μl/well 100 mM phosphoric acid solution and the gasket is carefully removed from the back of the MultiScreen-IP plate and the plate dried in the oven for 30 minutes. The MultiScreen-IP plate is backsealed, 50 μL of Microscint™20 is added, then the plates are topsealed and radiolabelled casein detected and quantified on a TopCount™ plate-reader using the ^33P scintillation protocol.
Consider `c1ccc(-c2nc(NCc3cccc4[nH]ccc34)cc(-c3cccnc3)n2)nc1` [Example 1.1, (1H-Indol-4-ylmethyl)-(6-pyridin-3-yl-2-pyridin-2-yl-pyrimidin-4-yl)-amine], for which inhibition was half-maximal at 100 nM (IC50). On the same count and under the same terms, the value for `c1ccc(-c2nc(NCCc3cccc4[nH]ccc34)cc(-c3cccnc3)n2)nc1` [Example 1.2, [2-(1H-Indol-4-yl)-ethyl]-(6-pyridin-3-yl-2-pyridin-2-yl-pyrimidin-4-yl)-amine] was 30 nM; that for `Cc1cccc(-c2nc(NCCc3c[nH]c4ccccc34)cc(-c3cccnc3)n2)n1` [Example 1.3, [2-(1H-Indol-3-yl)-ethyl]-[2-(6-methyl-pyridin-2-yl)-6-pyridin-3-yl-pyrimidin-4-yl]-amine] was 60 nM; that for `Cc1cccc(-c2nc(NCCc3cccc4[nH]ccc34)cc(-c3cccnc3)n2)n1` [Example 1.6, [2-(1H-Indol-4-yl)-ethyl]-[2-(6-methyl-pyridin-2-yl)-6-pyridin-3-yl-pyrimidin-4-yl]-amine] was 20 nM. `Fc1ccc2[nH]cc(CCNc3cc(-c4cccnc4)nc(-c4ccccn4)n3)c2c1` [Example 1.15, [2-(5-Fluoro-1H-indol-3-yl)-ethyl]-(6-pyridin-3-yl-2-pyridin-2-yl-pyrimidin-4-yl)-amine]: it took 790 nM to reach half-maximal inhibition (IC50). Consider `c1ccc(-c2nc(NCc3c[nH]c4ccccc34)cc(-c3cccnc3)n2)nc1` [Example 1.23, (1H-Indol-3-ylmethyl)-(6-pyridin-3-yl-2-pyridin-2-yl-pyrimidin-4-yl)-amine], for which the IC50 is 570 nM. `Oc1ccc2[nH]cc(CCNc3cc(-c4cccnc4)nc(-c4ccccn4)n3)c2c1` [Example 1.29, 3-[2-(6-Pyridin-3-yl-2-pyridin-2-yl-pyrimidin-4-ylamino)-ethyl]-1H-indol-5-ol] yielded an IC50 of 370 nM.

`Fc1cccc2c(CCNc3cc(-c4cccnc4)nc(-c4ccccn4)n3)c[nH]c12` [Example 1.42, [2-(7-Fluoro-1H-indol-3-yl)-ethyl]-(6-pyridin-3-yl-2-pyridin-2-yl-pyrimidin-4-yl)-amine]: the IC50 came to 310 nM. Turning to `Cc1cccc(-c2nc(NCCc3cccc(O)c3)cc(-c3cccnc3)n2)n1` [Example 1.48, 3-{2-[2-(6-Methyl-pyridin-2-yl)-6-pyridin-3-yl-pyrimidin-4-ylamino]-ethyl}-phenol], the IC50 amounted to 80 nM. For `Oc1ccccc1CCNc1cc(-c2cccnc2)nc(-c2ccccn2)n1` [Example 1.62, 2-[2-(6-Pyridin-3-yl-2-pyridin-2-yl-pyrimidin-4-ylamino)-ethyl]-phenol], the IC50 was found to be 150 nM. Same read-out and setting: the value for `c1ccc(-c2nc(NCCc3coc4ccccc34)cc(-c3cccnc3)n2)nc1` [Example 1.77, (2-Benzofuran-3-yl-ethyl)-(6-pyridin-3-yl-2-pyridin-2-yl-pyrimidin-4-yl)-amine] was 180 nM. `Cc1ccc2c(CCNc3cc(-c4cccnc4)nc(-c4cccc(C)n4)n3)c[nH]c2c1` [Example 1.82, [2-(6-Methyl-1H-indol-3-yl)-ethyl]-[2-(6-methyl-pyridin-2-yl)-6-pyridin-3-yl-pyrimidin-4-yl]-amine] came in with an IC50 of 100 nM. This IC50 is about 1.8-fold lower than that of the molecule before. The molecule `COc1cncc(-c2cc(NCc3cccc4[nH]ccc34)nc(-c3cccc(C)n3)n2)c1` [Example 2.2, (1H-Indol-4-ylmethyl)-[6-(5-methoxy-pyridin-3-yl)-2-(6-methyl-pyridin-2-yl)-pyrimidin-4-yl]-amine] returned an IC50 of 20 nM. The molecule `COc1cccc(-c2cncc(-c3cc(NCc4cccc(O)c4)nc(-c4ccccn4)n3)c2)c1` [Example 2.17, 3-({6-[5-(3-Methoxy-phenyl)-pyridin-3-yl]-2-pyridin-2-yl-pyrimidin-4-ylamino}-methyl)-phenol] yielded an IC50 of 80 nM. `Cc1cncc(-c2cc(NCCc3c[nH]c4ccccc34)nc(-c3ccccn3)n2)c1` [Example 2.31, [2-(1H-Indol-3-yl)-ethyl]-[6-(5-methyl-pyridin-3-yl)-2-pyridin-2-yl-pyrimidin-4-yl]-amine] yielded an IC50 of 910 nM. For the molecule `CNc1cc(-c2cncc(-c3cccc(OC)c3)c2)nc(-c2cccc(C)n2)n1` [Example 2.69, [6-[5-(3-Methoxy-phenyl)-pyridin-3-yl]-2-(6-methyl-pyridin-2-yl)-pyrimidin-4-yl]-methyl-amine], the half-maximal inhibitory concentration (IC50) stood at 420 nM. The molecule `COc1cccc(-c2cncc(-c3cc(NCc4cccc(O)c4)nc(-c4cccc(C)n4)n3)c2)c1` [Example 2.70, 3-([6-[5-(3-Methoxy-phenyl)-pyridin-3-yl]-2-(6-methyl-pyridin-2-yl)-pyrimidin-4-ylamino]-methyl}-phenol] gave an IC50 of 10 nM. Against the preceding molecule, the IC50 is about 42-fold lower.

Take `Cc1cccc(-c2nc(NCc3cccc(O)c3)cc(-c3cncc(-c4ccc(F)cc4)c3)n2)n1` [Example 2.71, 3-{[6-[5-(4-Fluoro-phenyl)-pyridin-3-yl]-2-(6-methyl-pyridin-2-yl)-pyrimidin-4-ylamino]-methyl}-phenol]: the IC50 amounted to 40 nM. Compared with the last molecule, the IC50 is about 4-fold higher.

By IC50 is commonly meant the concentration needed to halve the response being measured.
